Results taken from patent publication US10670605B2, “Cysteine reactive probes and uses thereof” (The Scripps Research Institute, priority 2015, dated 2020).

Experiments:
Assay in all cases: Competitive isoTOP-ABPP in situ (fragment-treated cells)
Type in all cases: cell-based
[1] = target: T1, cysteines in MDA-MB-231 and Ramos cells (Homo sapiens, UniProt A6NDU8); conditions: 200 μM, insitu
T1 sequence (A6NDU8 1-294): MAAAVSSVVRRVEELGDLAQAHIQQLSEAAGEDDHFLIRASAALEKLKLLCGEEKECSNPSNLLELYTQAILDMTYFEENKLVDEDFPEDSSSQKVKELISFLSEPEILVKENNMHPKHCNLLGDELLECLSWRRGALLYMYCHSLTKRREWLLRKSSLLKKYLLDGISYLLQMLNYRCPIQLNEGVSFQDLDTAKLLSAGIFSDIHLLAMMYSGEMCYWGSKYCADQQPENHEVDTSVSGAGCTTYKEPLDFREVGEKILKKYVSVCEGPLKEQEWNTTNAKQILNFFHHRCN

[2] = target: cysteines in MDA-MB-231 and Ramos cells (Homo sapiens, UniProt O00299); conditions: 200 μM, insitu
[3] = target: cysteines in MDA-MB-231 and Ramos cells (Homo sapiens, UniProt O60610); conditions: 200 μM, insitu
cysteines in MDA-MB-231 and Ramos cells (Homo sapiens, UniProt O60610), sequence (O60610 whole entry): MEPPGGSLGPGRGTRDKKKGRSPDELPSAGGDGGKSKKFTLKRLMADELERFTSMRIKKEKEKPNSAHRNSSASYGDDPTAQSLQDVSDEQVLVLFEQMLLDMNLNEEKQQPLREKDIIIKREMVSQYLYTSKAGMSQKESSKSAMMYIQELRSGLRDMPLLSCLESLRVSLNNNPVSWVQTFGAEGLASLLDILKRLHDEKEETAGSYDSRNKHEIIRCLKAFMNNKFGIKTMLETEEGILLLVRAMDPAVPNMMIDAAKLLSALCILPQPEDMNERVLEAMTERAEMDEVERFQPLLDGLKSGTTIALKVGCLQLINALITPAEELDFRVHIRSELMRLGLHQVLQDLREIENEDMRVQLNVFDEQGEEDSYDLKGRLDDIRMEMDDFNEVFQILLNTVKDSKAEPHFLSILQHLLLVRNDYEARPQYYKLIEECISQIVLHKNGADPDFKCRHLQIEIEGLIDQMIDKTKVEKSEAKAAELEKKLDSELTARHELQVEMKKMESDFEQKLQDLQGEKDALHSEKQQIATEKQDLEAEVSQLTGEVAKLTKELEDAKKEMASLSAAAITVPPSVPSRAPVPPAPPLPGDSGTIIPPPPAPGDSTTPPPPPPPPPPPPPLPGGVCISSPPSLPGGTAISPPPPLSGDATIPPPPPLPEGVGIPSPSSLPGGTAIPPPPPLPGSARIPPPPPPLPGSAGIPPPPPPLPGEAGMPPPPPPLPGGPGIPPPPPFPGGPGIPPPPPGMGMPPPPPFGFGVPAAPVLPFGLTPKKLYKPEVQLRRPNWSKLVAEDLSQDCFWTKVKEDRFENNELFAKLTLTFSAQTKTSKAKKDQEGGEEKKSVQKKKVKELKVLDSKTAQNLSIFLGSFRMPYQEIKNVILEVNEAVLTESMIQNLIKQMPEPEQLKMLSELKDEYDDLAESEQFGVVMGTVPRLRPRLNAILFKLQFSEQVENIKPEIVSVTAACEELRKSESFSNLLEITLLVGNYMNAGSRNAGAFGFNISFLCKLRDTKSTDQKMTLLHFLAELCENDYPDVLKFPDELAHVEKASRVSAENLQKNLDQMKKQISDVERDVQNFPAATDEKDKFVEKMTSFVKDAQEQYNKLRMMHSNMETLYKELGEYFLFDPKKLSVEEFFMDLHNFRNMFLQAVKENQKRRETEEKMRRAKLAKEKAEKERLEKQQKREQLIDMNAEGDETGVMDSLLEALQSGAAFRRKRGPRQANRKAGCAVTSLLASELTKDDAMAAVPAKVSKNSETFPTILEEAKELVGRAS

[4] = target: T2, cysteines in MDA-MB-231 and Ramos cells (Homo sapiens, UniProt O95336); conditions: 200 μM, insitu
T2 sequence (O95336 1-258): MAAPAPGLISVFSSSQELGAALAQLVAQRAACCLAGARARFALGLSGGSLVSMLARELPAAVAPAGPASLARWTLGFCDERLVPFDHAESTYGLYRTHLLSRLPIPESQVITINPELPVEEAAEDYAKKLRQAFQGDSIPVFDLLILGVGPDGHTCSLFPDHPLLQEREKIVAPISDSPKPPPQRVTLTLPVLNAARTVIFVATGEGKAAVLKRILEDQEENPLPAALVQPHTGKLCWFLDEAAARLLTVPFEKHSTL

[5] = target: T3, cysteines in MDA-MB-231 and Ramos cells (Homo sapiens, UniProt Q13418); conditions: 200 μM, insitu, 231
T3 sequence (Q13418 1-452): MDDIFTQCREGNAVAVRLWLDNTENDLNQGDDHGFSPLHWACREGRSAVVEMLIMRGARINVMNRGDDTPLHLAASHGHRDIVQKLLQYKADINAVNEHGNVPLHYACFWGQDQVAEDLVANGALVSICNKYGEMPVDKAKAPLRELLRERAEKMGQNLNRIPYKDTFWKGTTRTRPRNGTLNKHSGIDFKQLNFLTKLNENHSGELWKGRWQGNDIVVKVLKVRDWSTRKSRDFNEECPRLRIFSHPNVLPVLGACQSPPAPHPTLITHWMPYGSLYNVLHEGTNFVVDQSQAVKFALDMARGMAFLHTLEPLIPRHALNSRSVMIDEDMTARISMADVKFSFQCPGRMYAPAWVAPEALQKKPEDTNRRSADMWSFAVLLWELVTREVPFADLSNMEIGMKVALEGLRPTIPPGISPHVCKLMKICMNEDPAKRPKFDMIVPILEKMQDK

[6] = target: cysteines in MDA-MB-231 and Ramos cells (Homo sapiens, UniProt Q13526); conditions: 200 μM, insitu
cysteines in MDA-MB-231 and Ramos cells (Homo sapiens, UniProt Q13526), sequence (Q13526 whole entry): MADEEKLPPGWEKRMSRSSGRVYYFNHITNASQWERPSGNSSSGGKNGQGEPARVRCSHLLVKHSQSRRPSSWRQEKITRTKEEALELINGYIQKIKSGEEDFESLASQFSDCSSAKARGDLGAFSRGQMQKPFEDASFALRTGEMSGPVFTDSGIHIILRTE

[7] = target: T4, cysteines in MDA-MB-231 and Ramos cells (Homo sapiens, UniProt Q9HAV7); conditions: 200 μM, insitu
T4 sequence (Q9HAV7 28-217): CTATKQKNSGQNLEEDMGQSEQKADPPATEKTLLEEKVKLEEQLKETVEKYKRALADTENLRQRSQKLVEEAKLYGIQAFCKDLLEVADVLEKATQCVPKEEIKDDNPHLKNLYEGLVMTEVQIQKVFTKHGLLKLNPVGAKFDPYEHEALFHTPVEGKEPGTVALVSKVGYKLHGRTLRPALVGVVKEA

[8] = target: T5, cysteines in MDA-MB-231 and Ramos cells (Homo sapiens, UniProt Q9Y277); conditions: 200 μM, insitu
T5 sequence (Q9Y277 1-283): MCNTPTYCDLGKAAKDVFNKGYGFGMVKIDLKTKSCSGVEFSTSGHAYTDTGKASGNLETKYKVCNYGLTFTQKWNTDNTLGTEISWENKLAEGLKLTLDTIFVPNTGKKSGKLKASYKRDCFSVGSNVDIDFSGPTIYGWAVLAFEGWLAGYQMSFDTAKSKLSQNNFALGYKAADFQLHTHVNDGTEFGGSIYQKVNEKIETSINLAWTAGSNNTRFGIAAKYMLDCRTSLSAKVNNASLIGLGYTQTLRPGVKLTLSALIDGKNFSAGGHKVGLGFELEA

[9] = target: T6, cysteines in MDA-MB-231 and Ramos cells (Homo sapiens, UniProt Q9Y3A3); conditions: 200 μM, insitu
T6 sequence (Q9Y3A3 1-225): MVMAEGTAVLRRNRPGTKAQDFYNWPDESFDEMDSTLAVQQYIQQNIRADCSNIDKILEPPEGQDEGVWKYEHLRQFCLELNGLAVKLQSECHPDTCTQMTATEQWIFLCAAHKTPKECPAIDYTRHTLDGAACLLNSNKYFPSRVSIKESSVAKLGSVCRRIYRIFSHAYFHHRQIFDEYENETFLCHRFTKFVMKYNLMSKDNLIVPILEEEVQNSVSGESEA

Compound | isoTOP-ABPP ratio A6NDU8_C179 [1]; 231 | isoTOP-ABPP ratio O00299_C24 [2]; 231 | isoTOP-ABPP ratio O60610_C1227 [3]; 231 | isoTOP-ABPP ratio O95336_C32 [4]; 231 | isoTOP-ABPP ratio Q13418_C346 [5] | isoTOP-ABPP ratio Q13526_C113 [6]; 231 | isoTOP-ABPP ratio Q9HAV7_C124 [7]; 231 | isoTOP-ABPP ratio Q9Y277_C65 [8]; 231 | isoTOP-ABPP ratio A6NDU8_C179 ([1]; ramos) | isoTOP-ABPP ratio O00299_C24 ([2]; ramos) | isoTOP-ABPP ratio O60610_C1227 ([3]; ramos) | isoTOP-ABPP ratio O95336_C32 ([4]; ramos) | isoTOP-ABPP ratio Q13526_C113 ([6]; ramos) | isoTOP-ABPP ratio Q9HAV7_C124 ([7]; ramos) | isoTOP-ABPP ratio Q9Y3A3_C134 ([9]; ramos) | isoTOP-ABPP ratio Q9Y277_C65 ([8]; ramos) | isoTOP-ABPP ratio Q9Y3A3_C134 [9]; 231
O=C(CCl)NC12CC3CC(CC(C3)C1)C2 [compound 21] | 0.9 | 0.7 | 20.0 | 0.9 | 0.5 | 0.7 | 1.7 | 2.9 | – | – | – | – | – | – | – | – | –
CC(C)CCOCCNC(=O)CCl [compound 27] | 0.7 | 0.7 | 0.5 | 0.5 | 0.6 | 0.5 | 0.6 | 1.6 | – | – | – | – | – | – | – | – | –
COc1ccccc1OCCNC(=O)CCl [compound 28] | 0.8 | – | – | – | – | 0.7 | – | 1.2 | – | – | – | – | – | – | – | – | –
O=C(CCl)N1CCN(CC(=O)N2CCOCC2)CC1 [compound 29] | – | – | – | – | – | – | – | – | 1.0 | 1.1 | 1.6 | 3.0 | 1.0 | 1.0 | 1.2 | – | –
C=CC(=O)N(Cc1cccnc1)c1cc(C(F)(F)F)cc(C(F)(F)F)c1 [compound 31] | – | 0.6 | 0.6 | – | 0.6 | 0.6 | – | – | – | – | 1.2 | 1.7 | 1.1 | – | 1.8 | 1.0 | 1.0
C=CC(=O)Nc1cc(F)c(N2CCN(C(=O)OC(C)(C)C)CC2)c(F)c1 [compound 38] | 1.4 | 1.0 | 0.3 | 2.8 | 1.0 | 1.0 | 1.0 | 20.0 | – | – | – | – | – | – | – | – | 1.0
Cc1ccc(C=C(C#N)C(=O)NCCN2CCOCC2)cc1 [compound 41] | 0.6 | 0.6 | 0.6 | 0.6 | 0.6 | 0.6 | 0.6 | 1.4 | – | – | – | – | – | – | – | – | 0.9
CC1CCc2ccccc2N1C(=O)CCl (stereo not shown) [compound 45] | 20.0 | – | 3.0 | – | – | 10.0 | 2.1 | – | – | – | – | – | – | – | – | – | 2.3
O=C(CCl)Nc1cccc2ncccc12 [compound 51] | – | – | – | – | 0.8 | 1.4 | – | – | – | – | – | – | – | – | – | – | –
